According to patent publication US20220193013A1, “Pharmaceutical Composition for Treatment or Prevention of Multiple Inflammatory Disorders” (priority 2020, published 2022):

Columns and labels:
[1] = test system: leptin-deficient (ob/ob) mice; assay: body weight study of denatonium acetate in leptin-deficient (ob/ob) mice fed with high-fat diet, 28 days; format: in vivo, mouse; details: vs vehicle
Experimental: This example describes an in vivo study of denatonium acetate on body weight in leptin-deficient (ob/ob) mice. Adult leptin-deficient mice (homozygote, ob/ob mice) fed with high-fat diet. There was a vehicle control group (15 mice) that were treated with distilled water by gavage BID. The DA group (15 mice) were treated with a DA solution at a dose of 23.1 mg/kg BID. Body weights and body weight changes were determined at days 1, 3, 7, 10, 14, 21, 24 and 28. Food intake was determined on days 3, 7, 10, 14, 17, 21, […] and 28. On day 28 blood samples were taken for cytokine analysis, HbA1c, HDL, LDL, insulin, and bile acids. Statistics were done by two-way repeated measures ANOVA followed by Tukey's multiple comparison post hoc test.

[2] = test system: air pouch model of inflammation, C57BL/6 mice; assay: murine air pouch model of inflammation (LPS induction); format: in vivo, mouse
Experimental: This example provides the results of investigating DA to modulate immune response in a murine air pouch model of inflammation. Eight C57BL/6 mice were assigned to groups for gavage treatment (BID) of controls (distilled water), DA at a dose of 23.1 mg/kg BID (low dose DA), and DA at a dose of 96.4 mg/kg BID (high dose DA). What was measured was infiltrating cell counts with air pouch exudates, IL-6 levels in air pouch exudates by an ELISA assay (R&D Systems Cat. No. M6000B), and multiple cytokine analysis (Mouse 32Plex Kit MilliporeSigma Cat. No. MCYTMAG70PMX32BK). Statistical analysis was done by a one-way ANOVA followed by Tukey's multiple comparison post hoc test for data with normal distribution, Kruskal-Wallis test followed by Dunn's multiple comparison post hoc test for data with skewed distribution, and the ROUT method for identifying outliers.
Duarte et al., Current Protocols in Pharmacology, 5.6.1-5.6.8 Mar. 2012, describes “The subcutaneous air pouch is an in vivo model that can be used to study acute and chronic inflammation, the resolution of the inflammatory response, and the oxidative stress response. Injection of irritants into an air pouch in rats or mice induces an inflammatory response that can be quantified by the volume of exudate produced, the infiltration of cells, and the release of inflammatory mediators. The model presented in this unit has been extensively used to identify potential anti-inflammatory drugs.” It can be used to study localized inflammation without systemic effects. But in this case the drug was administered orally, by gavage BID.
Test administration was 5 ml/kg body weight BID dosing with 8 hour intervals. The air pouch was created in each test BL6 mouse by sc injection of 1.5 ml/mouse of sterile air on day 0 and 1.5 ml/mouse of sterile air on day 3. Compounds (or control distilled water) were administered BID on day −2. LPS (0.75 mg/animal in 1 ml endotoxin free PBS) was administered at hour 0 or one hour after dosing with test compounds. Plasma samples were collected at termination and exudates of the air pouches for all groups. Cell count analysis and IL-6 assays were conducted at the animal facility and plasma and exudate samples were sent out for cytokine analysis. Each group of distilled water control, 23.1 mg/kg DA and 92.4 mg/kg DA had 8 mice each.

[3] = test system: microbial populations in fecal samples; assay: microbiome study in NASH mouse model (AMLN diet), 4 weeks; format: in vivo
From the text: There were changes in the microbiome in a mice model using a high-fat diet after 4 weeks of treatment with and without administering DA orally. The high fat diet itself induced extensive changes in the microbial populations in all groups. Importantly though, there was a pronounced difference between the DA treatment group and the control group at week 4.
The effect of a small molecule oral TAS2R agonist (DA) was investigated on microbial populations in a nonalcoholic steatohepatitis (NASH) mouse model. Two groups of 4-week-old male C57BL/6 mice (20/group) were fed Amylin Liver NASH (AMLN) diet and received daily doses of ARD-101 (30 mg/mL in water) or vehicle (water) via intragastric gavage. DNA was isolated from fecal samples collected at week 0 and 4, and microbial ecology was evaluated using bTEFAP (bacterial tag-encoded FLX amplicon pyrosequencing). Operational taxonomic units were classified using BLAST against a curated NCBI database. Diversity within specific ecosystems and microbial community structures was analyzed with Qiime 2. Differences were determined by repeated measures ANOVA and post hoc pairwise comparisons using Tukey's test. Taxonomic classification data were evaluated with a dual hierarchal dendrogram.

[4] = 23.1 mg/kg BID, pre-dose to day 28, not statistically significant
[5] = 4-week DA treatment, genetic potential of microbiome
[6] = treatment at 4 weeks versus baseline and control
[7] = week 4, DA group versus vehicle group, AMLN diet

SMILES: CC(=O)[O-].CC[N+](CC)(CC(=O)Nc1c(C)cccc1C)Cc1ccccc1 [DA, denatonium acetate]
- average daily average individual food intake ([1]; 23.1 mg/kg BID gavage, 28 days): no difference
- GM-CSF in blood ([1]; 23.1 mg/kg BID gavage, day 28): significant decreases
- IFNγ in blood ([1]; 23.1 mg/kg BID gavage, day 28): significant decreases
- IL-5 in blood ([1]; 23.1 mg/kg BID gavage, day 28): significant decreases
- IL-10 in blood ([1]; 23.1 mg/kg BID gavage, day 28): significant decreases
- IL-12 in blood ([1]; 23.1 mg/kg BID gavage, day 28): significant decreases
- KC/CXCL1 in blood ([1]; 23.1 mg/kg BID gavage, day 28): significant decreases
- M-CSF in blood ([1]; 23.1 mg/kg BID gavage, day 28): significant decreases
- blood HDL level ([1]; 23.1 mg/kg BID gavage, day 28): statistically significant decrease
- blood HbA1c levels ([1]; 23.1 mg/kg BID gavage, day 28): no statistically significant difference
- blood LDL levels ([1]; 23.1 mg/kg BID gavage, day 28): no statistically significant difference
- blood bile acid levels ([1]; 23.1 mg/kg BID gavage, day 28): no statistically significant difference
- blood insulin levels ([1]; 23.1 mg/kg BID gavage, day 28): no statistically significant difference
- blood total cholesterol levels (LDL plus HDL) ([1]; 23.1 mg/kg BID gavage, day 28): almost significant decrease
- fasting blood glucose level ([1]; 23.1 mg/kg BID gavage, day 28): no statistically significant difference
- body weight change ([1]; 23.1 mg/kg BID gavage, days 1-28, P=0.105): no significant main effect
- body weight change at day 28 ([1]; 23.1 mg/kg BID gavage): no statistically significant difference
- cumulative food consumption over 28 days ([1]; 23.1 mg/kg BID gavage): no statistically significant difference
- change in granulocyte number [1, 4]: trend of increasing change
- change in lymphocyte and white blood cell numbers and percentage [1, 4]: trend of increasing change
- change in monocyte number and percentage [1, 4]: trend of increasing change
- IL-1β level ([2]; higher dose of DA): significant reduction
- IL-10 level ([2]; higher dose of DA): significant reduction
- IL-17 level ([2]; higher dose of DA): significant reduction
- TNF-1α level ([2]; higher dose of DA): significant reduction
- IL-6 levels in air pouch exudates ([2]; pre-treated with DA at 96.4 mg/kg BID gavage, ELISA, vs vehicle and lower dose): significantly lower
- infiltrating cell count in air pouch exudates ([2]; pre-treated with DA at 96.4 mg/kg BID gavage, vs vehicle and lower dose): significantly lower
- arginine and ornithine metabolism [3, 5]: significantly decreased signaling
- pathways for biosynthesis of unsaturated fatty acids [3, 5]: significant enrichment
- pathways for glycolysis and gluconeogenesis [3, 5]: significant enrichment
- pathways for lysine degradation [3, 5]: significant enrichment
- pathways for metabolism of arachidonic acid [3, 5]: significant enrichment
- pathways for metabolism of cofactors and vitamins [3, 5]: significant enrichment
- phosphatidylinositol signaling [3, 5]: significant enrichment
- SCFAs in feces ([3]; AMLN diet, DA treatment): mitigated the diet-induced decrease
- diversity within ecosystems and microbial communities ([3]; DA versus vehicle group at week 4, p<0.05): significantly less diversity
- genus: Lachnoclostridium, Barnesiella, Clostridium, Oscillospira, Dorea, candidatus soleaferrea, Dehalobacterium, Oscillibacter, Flavonifractor [3, 6]: Significantly Decreased
- genus: Parabacteroides, Escherichia, Erysipelatoclostridium, Peptoclostridium, Sutterella, Shigella, Brenneria [3, 6]: Significantly Increased
- Cyanobacteria (phylum level) [3, 7]: significant increases
- Deferribacteres (phylum level) [3, 7]: significant decreases
- Firmicutes (phylum level) [3, 7]: significant decreases
- Proteobacteria (phylum level) [3, 7]: significant increases
- Spirochetes (phylum level) [3, 7]: significant decreases
- Verrucomicrobia (phylum level) [3, 7]: significant increases
- Bacteroidetes (phylum level) ([3]; week 4, not marked significant): decreased
